Measurements from patent publication US20210063414A1, “METHODS FOR PREVENTING AND/OR TREATING BONE LOSS CONDITIONS BY MODULATING IRISIN” (Dana-Farber Cancer Institute, Inc., priority 2018, published 2021).

System: sclerostin
Assay: Irisin injection in mice: sclerostin mRNA in osteocyte-enriched bones and plasma sclerostin protein (ELISA)
Type: in vivo
Details: co-injection of 1 mg/kg inhibitor with irisin
Procedure: 8 weeks old mice were injected daily with indicated dose of irisin for 6 days. […] were collected and treated with collagenase to yield osteocyte-enriched bones. Sclerostin mRNA level from osteocyte-enriched tibia was analyzed by qPCR (FIG. 7A). Cyclophilin was used as a house-keeping gene. Plasma was collected to analyze the circulating sclerostin protein level by ELISA assay (FIG. 7B). Data are represented as mean±SEM. For FIG. 7A and FIG. 7B, n=5 animals/group. * indicates p<0.05, and *** indicates p<0.001.
Certain materials and methods were used to generate the results described herein. For example, the data shown in FIG. 1A resulted from MLO-Y4 (an osteocyte-like cell line) cells treated with the indicated concentration of irisin and hydrogen peroxide for 4 hours. Cells were stained with Hoechst 33342 (ThermoFisher Scientific, catalog number H3570) and Eth-D1 (ThermoFisher Scientific, catalog number E1169) and analyzed to determine the percentage of cell death using ImageJ. […] Co-precipitated irisin was analyzed by immunoblot analysis against flag tag (Sigma Aldrich, catalog number A8592). The data shown in FIGS. 5A and 5B were generated from MLO-Y4 cells treated and analyzed as in the experiments used to generate the data shown in FIG. 2D, except that pre-treatment of 100 nM RGDS (FIG. 5A) or echistatin (R & D Systems Inc., catalog number 3202/100U) (FIG. 5B) for 10 minutes was performed before irisin treatment. […] RNAs were extracted from the cells and the sclerostin mRNA level was analyzed by qPCR (FIG. 6A) or treated and analyzed as in (FIG. 6A), except that pre-treatment of 10 μM RGDS, RGDyK (Selleck, catalog number S7844), or echistatin was performed for 10 minutes before irisin treatment. […] Sclerostin mRNA level was analyzed by qPCR (FIG. 7A). […] Epididymal fats were collected, RNAs were extracted from the tissues, and mRNA levels of the indicated genes were analyzed by qPCR. […]

N=C(N)NCCC[C@@H]1NC(=O)[C@H](CCCCN)NC(=O)[C@@H](Cc2ccc(O)cc2)NC(=O)[C@H](CC(=O)O)NC(=O)CNC1=O [cyclo RGDyK]
effect on irisin-induced gene expression of sclerostin in osteocyte-enriched bones: prevented
effect on irisin-induced sclerostin protein level in plasma: prevented
